Laboratory results: PubChem BioAssay AID1963861 (Molecular Pharmacology Branch, DTP, NCI, 2024)

Tested on: 885724-159-R-J1-PDC KRAS PDC multicell spheroid viability
Test: Anticancer human tumor 885724-159-R-J1-PDC patient-derived pancreatic adenocarcinoma cell line growth inhibition [KRAS2]
Settings: for IC50: curve of first compound; for viability, T/C: stronger effect = lower value; active = viability on the fitted dose curve at most 10% of control; inactive = the rest
Method in brief: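 Combination screen of spheroid viability in tumor-cell co-cultures with endothelial (HUVEC) and mesenchymal stem cell stroma. Each agent was tested in half-log dilutions, topping at clinical Cmax or at 10 microM without a known Cmax.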

[1] = second compound 0.1 µM, first compound 0.01 µM
[2] = second compound 0.1 µM, first compound 0.0316 µM
[3] = second compound 0.1 µM, first compound 0.1 µM
[4] = second compound 0.1 µM, first compound 0.316 µM
[5] = second compound 0.1 µM, first compound 1 µM
[6] = second compound 0.1 µM, first compound 3.16 µM
[7] = second compound 0.316 µM, first compound 0.01 µM
[8] = second compound 0.316 µM, first compound 0.0316 µM
[9] = second compound 0.316 µM, first compound 0.1 µM
[10] = second compound 0.316 µM, first compound 0.316 µM
[11] = second compound 0.316 µM, first compound 1 µM
[12] = second compound 0.316 µM, first compound 3.16 µM
[13] = second compound 1 µM, first compound 0.01 µM
[14] = second compound 1 µM, first compound 0.0316 µM
[15] = second compound 1 µM, first compound 0.1 µM
[16] = second compound 1 µM, first compound 0.316 µM
[17] = second compound 1 µM, first compound 1 µM
[18] = second compound 1 µM, first compound 3.16 µM
[19] = second compound 3.16 µM, first compound 0.01 µM
[20] = second compound 3.16 µM, first compound 0.0316 µM
[21] = second compound 3.16 µM, first compound 0.1 µM
[22] = second compound 3.16 µM, first compound 0.316 µM
[23] = second compound 3.16 µM, first compound 1 µM
[24] = second compound 3.16 µM, first compound 3.16 µM
[25] = second compound 10 µM, first compound 0.01 µM
[26] = second compound 10 µM, first compound 0.0316 µM
[27] = second compound 10 µM, first compound 0.1 µM
[28] = second compound 10 µM, first compound 0.316 µM
[29] = second compound 10 µM, first compound 1 µM
[30] = second compound 10 µM, first compound 3.16 µM
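Note: spheroids exposed to agents for 7 days before readout.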

CC1COCCN1c1cc(-c2ccnn2C)c2ccnc(-c3ccn[nH]3)c2n1 (stereo not given) + CNCc1ccccc1-c1csc(C(C)Nc2nc(C)nc3cc(OC)c(OC)cc23)c1
> 3.16 µM: IC50 (second compound 0.1 µM) | IC50 (second compound 0.316 µM) | IC50 (second compound 1 µM)
< 0.01 µM: IC50 (second compound 3.16 µM) | IC50 (second compound 10 µM)
active: viability, T/C [19] 2.14% | viability, T/C [20] 0.77% | viability, T/C [21] 0.58% | viability, T/C [22] 0.86% | viability, T/C [23] 1.55% | viability, T/C [24] 1.97% | viability, T/C [25] 0.21% | viability, T/C [26] 0.23% | viability, T/C [27] 0.26% | viability, T/C [28] 0.24% | viability, T/C [29] 0.22% | viability, T/C [30] 0.28%
inactive: viability, T/C [1] 108% | viability, T/C [2] 85.3% | viability, T/C [3] 80.1% | viability, T/C [4] 61.4% | viability, T/C [5] 58.8% | viability, T/C [6] 58.8% | viability, T/C [7] 108% | viability, T/C [8] 90.4% | viability, T/C [9] 73.8% | viability, T/C [10] 64.2% | viability, T/C [11] 57.8% | viability, T/C [12] 57.4% | viability, T/C [13] 106% | viability, T/C [14] 84.4% | viability, T/C [15] 75.1% | viability, T/C [16] 64.7% | viability, T/C [17] 55.7% | viability, T/C [18] 56.8%

CC(=O)OC12COC1CC(O)C1(C)C(=O)C(O)C3=C(C)C(OC(=O)C(O)C(NC(=O)OC(C)(C)C)c4ccccc4)CC(O)(C(OC(=O)c4ccccc4)C21)C3(C)C (stereo not given) + COc1cc2nc(C)nc(NC(C)c3cc(N)cc(C(F)(F)F)c3)c2cc1OC1CCOC1
> 3.16 µM: IC50 (second compound 0.1 µM) | IC50 (second compound 0.316 µM) | IC50 (second compound 1 µM) | IC50 (second compound 3.16 µM) | IC50 (second compound 10 µM)
inactive: viability, T/C [1] 105% | viability, T/C [2] 116% | viability, T/C [3] 113% | viability, T/C [4] 122% | viability, T/C [5] 135% | viability, T/C [6] 132% | viability, T/C [7] 104% | viability, T/C [8] 112% | viability, T/C [9] 116% | viability, T/C [10] 125% | viability, T/C [11] 120% | viability, T/C [12] 126% | viability, T/C [13] 104% | viability, T/C [14] 130% | viability, T/C [15] 127% | viability, T/C [16] 132% | viability, T/C [17] 142% | viability, T/C [18] 141% | viability, T/C [19] 95.1% | viability, T/C [20] 104% | viability, T/C [21] 121% | viability, T/C [22] 111% | viability, T/C [23] 119% | viability, T/C [24] 119% | viability, T/C [25] 90.2% | viability, T/C [26] 105% | viability, T/C [27] 119% | viability, T/C [28] 121% | viability, T/C [29] 117% | viability, T/C [30] 111%

CN(C)C/C=C/C(=O)Nc1cc2c(Nc3ccc(F)c(Cl)c3)ncnc2cc1O[C@H]1CCOC1 + COc1cc2nc(C)nc(NC(C)c3cc(N)cc(C(F)(F)F)c3)c2cc1OC1CCOC1
inactive: viability, T/C (second compound 0.1 µM, first compound 0.000316 µM) 116% | viability, T/C (second compound 0.1 µM, first compound 0.001 µM) 103% | viability, T/C (second compound 0.1 µM, first compound 0.00316 µM) 97.1% | viability, T/C [1] 88.9% | viability, T/C [2] 79.6% | viability, T/C [3] 69.2% | viability, T/C (second compound 0.316 µM, first compound 0.000316 µM) 98.7% | viability, T/C (second compound 0.316 µM, first compound 0.001 µM) 102% | viability, T/C (second compound 0.316 µM, first compound 0.00316 µM) 92.9% | viability, T/C [7] 89% | viability, T/C [8] 67.3% | viability, T/C [9] 66.7% | viability, T/C (second compound 1 µM, first compound 0.000316 µM) 96.4% | viability, T/C (second compound 1 µM, first compound 0.001 µM) 120% | viability, T/C (second compound 1 µM, first compound 0.00316 µM) 110% | viability, T/C [13] 96% | viability, T/C [14] 79.1% | viability, T/C [15] 73.3% | viability, T/C (second compound 3.16 µM, first compound 0.000316 µM) 88.4% | viability, T/C (second compound 3.16 µM, first compound 0.001 µM) 102% | viability, T/C (second compound 3.16 µM, first compound 0.00316 µM) 80.3% | viability, T/C [19] 72.5% | viability, T/C [20] 68% | viability, T/C [21] 61.8% | viability, T/C (second compound 10 µM, first compound 0.000316 µM) 87.1% | viability, T/C (second compound 10 µM, first compound 0.001 µM) 85.7% | viability, T/C (second compound 10 µM, first compound 0.00316 µM) 75.2% | viability, T/C [25] 63.1% | viability, T/C [26] 60% | viability, T/C [27] 61.2%
> 0.1 µM: IC50 (second compound 0.1 µM) | IC50 (second compound 0.316 µM) | IC50 (second compound 1 µM) | IC50 (second compound 3.16 µM) | IC50 (second compound 10 µM)

O=C(c1cc(Cc2n[nH]c(=O)c3ccccc23)ccc1F)N1CCN(C(=O)C2CC2)CC1 + COc1cc2nc(C)nc(NC(C)c3cc(N)cc(C(F)(F)F)c3)c2cc1OC1CCOC1
> 10 µM: IC50 (second compound 0.1 µM) | IC50 (second compound 0.316 µM) | IC50 (second compound 1 µM) | IC50 (second compound 3.16 µM) | IC50 (second compound 10 µM)
inactive: viability, T/C [2] 129% | viability, T/C [3] 122% | viability, T/C [4] 110% | viability, T/C [5] 113% | viability, T/C [6] 98.2% | viability, T/C (second compound 0.1 µM, first compound 10 µM) 95% | viability, T/C [8] 113% | viability, T/C [9] 106% | viability, T/C [10] 104% | viability, T/C [11] 103% | viability, T/C [12] 98% | viability, T/C (second compound 0.316 µM, first compound 10 µM) 91.5% | viability, T/C [14] 129% | viability, T/C [15] 134% | viability, T/C [16] 132% | viability, T/C [17] 115% | viability, T/C [18] 111% | viability, T/C (second compound 1 µM, first compound 10 µM) 91.4% | viability, T/C [20] 91.4% | viability, T/C [21] 102% | viability, T/C [22] 94.8% | viability, T/C [23] 95.2% | viability, T/C [24] 91.9% | viability, T/C (second compound 3.16 µM, first compound 10 µM) 81.7% | viability, T/C [26] 97% | viability, T/C [27] 102% | viability, T/C [28] 98.4% | viability, T/C [29] 92.5% | viability, T/C [30] 107% | viability, T/C (second compound 10 µM, first compound 10 µM) 93.3%
